Laboratory results reported in patent US8039668B2, “Naphthalene-based inhibitors of anti-apoptotic proteins” (Burnham Institute for Medical Research, priority 2008, dated 2011).
Read-outs that look alike come from different tables or passages of the source.

Columns and labels:
BCL-XL [1] = target: T1, BCL-XL (Homo sapiens, UniProt Q07817); assay: Competitive fluorescence polarization assay (FPA), Bak BH3 peptide; assay type: binding; design: 100 nM GST-BCL-XL ΔTM protein; conditions: Table 9
Protocol: For competitive binding assays, 100 nM GST-BCL-XL ΔTM protein was preincubated with the tested compound at varying concentrations in 47.5 μL PBS (pH=7.4) in 96-well black plates at room temperature for 10 min, then 2.5 μL of 100 nM FITC-labeled Bak BH3 peptide was added to produce a final volume of 50 μL. The wild-type and mutant Bak BH3 peptides were included in each assay plate as positive and negative controls, respectively. […] IC50 was determined by fitting the experimental data to a sigmoidal dose-response nonlinear regression model (SigmaPlot 10.0.1, Systat Software, Inc., San Jose, Calif., USA). Data reported are mean of three independent experiments±standard error (SE). […] Fluorescence polarization was measured after 10 min.
Target sequence in this assay (Q07817 1-209 limits assumed): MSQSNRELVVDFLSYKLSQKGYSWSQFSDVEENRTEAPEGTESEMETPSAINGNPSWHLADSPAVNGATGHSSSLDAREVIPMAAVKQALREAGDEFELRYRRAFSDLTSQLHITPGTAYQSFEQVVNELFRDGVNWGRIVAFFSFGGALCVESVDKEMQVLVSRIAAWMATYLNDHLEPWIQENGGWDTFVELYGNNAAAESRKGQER

PC3ML cells = assay: Cell viability, ATP-LITE assay; assay type: cell-based, human; conditions: Homo sapiens, PC3-ML
Protocol: (§1) The activity of the compounds against human cancer cell lines (PC3ML, H460, H1299, RS11846) were assessed by using the ATP-LITE assay (PerkinElmer). All cells were seeded in either F12 or RPMI1640 medium with 5 mM L-glutamine supplemented with 5% fetal bovine serum (Mediatech Inc.), penicillin and streptomycin (Omega). For maintenance, cells were cultured in 5% FBS. Cells plated into 96 well plates at varying initial densities depending on doubling time. H460 and H1299 plated at 2000 cells/well, A549 and PC3 at 3000 cells/well, and RS118456S at 10,000 cells/well. Compounds were diluted to final concentrations with 0.1% DMSO. Prior to dispensing compounds onto cells, fresh 5% media was placed into wells. Administration of compounds occurred 24 hours after seeding into the fresh media. Cell viability was evaluated using ATP-LITE reagent (PerkinElmer) after 72 hours of treatment. Data were normalized to the DMSO control-treated cells using Prism version 5.01 (Graphpad Software).

H1299 cell line = assay: Cell viability, ATP-LITE assay; assay type: cell-based, human; conditions: Homo sapiens
Protocol: as §1

[2] = test system: human lymphoma RS11846 cell line; assay: Apoptosis, Annexin V-FITC and propidium iodide assay; assay type: cell-based; conditions: Homo sapiens
BCL-XL [3] = target: T1, BCL-XL; assay: 1D 1H-NMR binding assay; conditions: Table 9; note: key: +++: Very Active; ++: Active; +: Mild; −: Weak
Protocol: By observing the aliphatic region of the spectra, binding could be readily detected due to chemical shift changes in active site methyl groups of Ile, Leu, Thr, Val or Ala (region between −0.8 and 0.3 ppm). All experiments were performed with a 600 MHz spectrometer Bruker Avance 600 equipped with four rf channels and z-axis pulse-field gradients.
Target sequence in this assay (Q07817 whole entry): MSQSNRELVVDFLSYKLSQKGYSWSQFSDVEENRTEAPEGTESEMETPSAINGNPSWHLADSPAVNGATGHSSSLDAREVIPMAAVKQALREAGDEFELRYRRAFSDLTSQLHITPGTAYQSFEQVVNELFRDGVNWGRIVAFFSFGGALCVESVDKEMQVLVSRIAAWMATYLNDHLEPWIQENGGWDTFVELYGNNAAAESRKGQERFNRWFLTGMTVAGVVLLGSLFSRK

[4] = test system: H460 human lung cell line; assay: Cell viability, ATP-LITE assay; assay type: cell-based; conditions: Homo sapiens
Protocol: as §1

RS11846 cell line = assay: Cell viability, ATP-LITE assay; assay type: cell-based; conditions: Homo sapiens, read-out: RS11846 EC50 (ATP-LITE assay)
Protocol: as §1

[5] = NCI-H1299, read-out: H1299 EC50
[6] = read-out: RS11846 EC50 (Annexin V- and propidium iodide assay), Table 9
[7] = NCI-H1299, Table 9, read-out: H1299 EC50
[8] = Table 9, read-out: RS11846 EC50 (Annexin V- and propidium iodide assay)
[9] = NCI-H460, Table 9, read-out: H460 EC50

| IC50 (BCL-XL [1]; read-out: FPA IC50 (BCL-XL)) | EC50 (PC3ML cells; Table 9, read-out: PC3ML EC50) | EC50 (H1299 cell line; [7]) | EC50 [2, 8] | EC50 [4, 9] | SMILES | IC50 (BCL-XL [1]; FPA IC50 (BCL-XL)) | EC50 (PC3ML cells; read-out: PC3ML EC50, Table 9) | EC50 (H1299 cell line; [5]) | EC50 [2, 6] | 1D ^1H-NMR Binding Assay (BCL-XL) (BCL-XL [3]) | EC50 ([4]; NCI-H460, read-out: H460 EC50) | EC50 (RS11846 cell line) | EC50 (RS11846 cell line; Table 9) |
| --- | --- | --- | --- | --- | --- | --- | --- | --- | --- | --- | --- | --- | --- |
|  |  |  |  |  | Cc1cc2c(C(=O)Cc3cccc(Br)c3)c(O)c(O)cc2c(O)c1-c1c(C)cc2c(C(=O)Cc3cccc(Br)c3)c(O)c(O)cc2c1O [Compound XIII, 1,1′-(1,1′,6,6′,7,7′-hexahydroxy-3,3′-dimethyl-2,2′-binaphthyl-5,5′-diyl)bis(2-(3-bromophenyl)ethanone)] | 1.31 µM | 3.1 µM | 2.6 µM | 5.3 µM | ++ | 2.7 µM | 8.4 µM |  |
|  |  |  |  |  | Cc1cc2c(C(=O)c3ccc(-c4ccccc4)cc3)c(O)c(O)cc2c(O)c1-c1c(C)cc2c(C(=O)c3ccc(-c4ccccc4)cc3)c(O)c(O)cc2c1O [Compound IX, (1,1′,6,6′,7,7′-hexahydroxy-3,3′-dimethyl-2,2′-binaphthyl-5,5′-diyl)bis(biphenyl-4-ylmethanone)] |  | 7.7 µM | 9.6 µM | 25.9 µM | + | 8.2 µM | 2.8 µM |  |
| 1.29 µM | 3 µM | 3 µM | 6.6 µM | 1.5 µM | CCCCC(CC)CC(=O)c1c(O)c(O)cc2c(O)c(-c3c(C)cc4c(C(=O)CC(CC)CCCC)c(O)c(O)cc4c3O)c(C)cc12 (centres unmarked) [Compound V, 1,1′-(1,1′,6,6′,7,7′-hexahydroxy-3,3′-dimethyl-2,2′-binaphthyl-5,5′-diyl)bis(3-ethylheptan-1-one)] |  |  |  |  | + |  |  | 2.8 µM |
|  |  |  |  |  | Cc1cc2c(C(=O)C(C)C)c(O)c(O)cc2c(O)c1-c1c(C)cc2c(C(=O)C(C)C)c(O)c(O)cc2c1O [Compound III, 1,1′-(1,1′,6,6′,7,7′-hexahydroxy-3,3′-dimethyl-2,2′-binaphthyl-5,5′-diyl)bis(2-methylpropan-1-one)] |  | 3.9 µM | 4.8 µM | 14.7 µM | ++ | 1.5 µM | 15 µM |  |
| 2.9 µM | 3.6 µM | 4.2 µM | 18.3 µM |  | Cc1cc2c(C(=O)c3ccccc3)c(O)c(O)cc2c(O)c1-c1c(C)cc2c(C(=O)c3ccccc3)c(O)c(O)cc2c1O [Compound VII, (1,1′,6,6′,7,7′-hexahydroxy-3,3′-dimethyl-2,2′-binaphthyl-5,5′-diyl)bis(phenylmethanone)] |  |  |  |  | + |  |  |  |
|  | 2.8 µM | 4.8 µM | 13.4 µM | 3.6 µM | Cc1cc2c(C(=O)c3ccc(C(C)(C)C)cc3)c(O)c(O)cc2c(O)c1-c1c(C)cc2c(C(=O)c3ccc(C(C)(C)C)cc3)c(O)c(O)cc2c1O [Compound X, (1,1′,6,6′,7,7′-hexahydroxy-3,3′-dimethyl-2,2′-binaphthyl-5,5′-diyl)bis((4-tert-butylphenyl)methanone)] |  |  |  |  | − |  |  | 2.3 µM |
|  | 1.9 µM | 2.1 µM | 5.2 µM | 1.8 µM | Cc1cc2c(C(=O)CC3CCCCC3)c(O)c(O)cc2c(O)c1-c1c(C)cc2c(C(=O)CC3CCCCC3)c(O)c(O)cc2c1O [Compound XV, 1,1′-(1,1′,6,6′,7,7′-hexahydroxy-3,3′-dimethyl-2,2′-binaphthyl-5,5′-diyl)bis(2-cyclohexylethanone)] |  |  |  |  | + |  |  | 2 µM |

| SMILES | IC50 (BCL-XL [1]; read-out: FPA IC50 (BCL-XL)) | EC50 (PC3ML cells; Table 9, read-out: PC3ML EC50) | EC50 (H1299 cell line; [7]) | EC50 [2, 8] | EC50 [4, 9] | IC50 (BCL-XL [1]; FPA IC50 (BCL-XL)) | EC50 (PC3ML cells; read-out: PC3ML EC50, Table 9) | EC50 (H1299 cell line; [5]) | EC50 [2, 6] | 1D ^1H-NMR Binding Assay (BCL-XL) (BCL-XL [3]) | EC50 ([4]; NCI-H460, read-out: H460 EC50) | EC50 (RS11846 cell line) | EC50 (RS11846 cell line; Table 9) |
| --- | --- | --- | --- | --- | --- | --- | --- | --- | --- | --- | --- | --- | --- |
| Cc1cc2cc(O)c(O)cc2c(O)c1-c1c(C)cc2cc(O)c(O)cc2c1O [Compound II, 3,3′-dimethyl-2,2′-binaphthyl-1,1′,6,6′ 7,7′-hexaol] |  | 12.6 µM | 13.4 µM | 24.7 µM | 10.1 µM |  |  |  |  | + |  |  | 10 µM |
| Cc1cc2c(C(=O)CC(C)C)c(O)c(O)cc2c(O)c1-c1c(C)cc2c(C(=O)CC(C)C)c(O)c(O)cc2c1O [Compound IV, 1,1′-(1,1′,6,6′,7,7′-hexahydroxy-3,3′-dimethyl-2,2′-binaphthyl-5,5′-diyl)bis(3-methylbutan-1-one)] | 1.3 µM | 7.5 µM | 3.6 µM | 13.7 µM | 1.1 µM |  |  |  |  | + |  |  | 10 µM |
